Common to all, as to format: cell-based
The subject of assay [1] is S. aureus ATCC 13709. The assay is described as follows: MIC, antibacterial potency, S. aureus. The note with it: for MIC: Staphylococcus aureus, ATCC13709, S. aureus; for MIC, SA: S. aureus (SA), in µg/mL.
The subject of assay [2] is S. aureus ATCC 13709 (SA + serum). The experiment in a line: MIC, S. aureus + 20% mouse serum. Particulars: Staphylococcus aureus, ATCC13709; S. aureus + serum (20% mouse serum); read-out: Antibacterial Potency MIC.
Assay [3] relates to S. pneumoniae ATCC 51916. The experiment in a line: MIC, S. pneumoniae. Particulars: for MIC: Streptococcus pneumoniae, ATCC51916, S. pneumoniae, read-out: Antibacterial Potency MIC; for MIC Spn52: S. pneumoniae (Spn52), in µg/mL.
For assay [4], the system named is H. influenzae ATCC 49247. The experiment in a line: MIC, H. influenzae. The note with it: Haemophilus influenzae, ATCC49247, read-out: Antibacterial Potency MIC.
For assay [5], the system named is E. coli 8 ATCC 25922. The experiment in a line: MIC, E. coli 8 (wt). Particulars: for MIC: Escherichia coli, ATCC25922, E. coli (wt), read-out: Antibacterial Potency MIC; for MIC EC8: E. coli 8 (EC8).
The subject of assay [6] is E. coli ATCC 25922 (EC8 + serum). The assay is described as follows: MIC, E. coli + 20% mouse serum. The note with it: Escherichia coli, ATCC25922; E. coli + serum (20% mouse serum); read-out: Antibacterial Potency MIC.
Assay [7] relates to E. coli Δtolc BW25113 Δtolc. The assay is described as follows: microbe, parasite or virus in culture. The note with it: Escherichia coli, BW25113, read-out: Antibacterial Potency MIC.
Assay [8] concerns E. coli imp Benson BAS849. The experiment in a line: microbe, parasite or virus in culture. The note with it: Escherichia coli, read-out: Antibacterial Potency MIC.
For assay [9], the system named is K. pneumoniae 11. The experiment in a line: MIC, K. pneumoniae 11. The note with it: Klebsiella pneumoniae, read-out: Antibacterial Potency MIC.
The subject of assay [10] is K. pneumoniae 101. The assay is described as follows: MIC, K. pneumoniae 101. Particulars: Klebsiella pneumoniae, read-out: Antibacterial Potency MIC.
Assay [11] has as its system A. baumannii ATCC 19606. The experiment in a line: MIC, A. baumannii. Particulars: Acinetobacter baumannii, ATCC19606, read-out: Antibacterial Potency MIC.
In assay [12] the test system is P. aeruginosa ATCC 15692. The assay is described as follows: MIC, P. aeruginosa (wt). The note with it: Pseudomonas aeruginosa, ATCC15692, read-out: Antibacterial Potency MIC.

In brackets after ≈: the same amount, converted by molar mass.

In the case of `CCc1[nH]c2nc(Sc3cnc4ccc[n+]([O-])c4c3)nc(N3CC[C@@H](N)C3)c2c1Cl` [701,008], the MIC in assay [1] is not above 0.5 µg/mL; in assay [2], not above 0.5 µg/mL; in [3], 1 µg/mL (≈ 2.26 µM); in assay [4] it was 2 µg/mL (≈ 4.53 µM); in assay [5], 4 µg/mL (≈ 9.05 µM); in [6], 2 µg/mL. The MIC in assay [7] was not above 0.5 µg/mL; in assay [8], 1 µg/mL (≈ 2.26 µM); in assay [9] it was 32 µg/mL (≈ 72.4 µM); in [10], not above 0.5 µg/mL; in assay [11], 8 µg/mL (≈ 18.1 µM); in assay [12], 16 µg/mL (≈ 36.2 µM).

As to `CCc1[nH]c2nc(Sc3cnc4ccc[n+]([O-])c4c3)nc(N3CC4C(N)C4C3)c2c1Cl` (stereo not drawn) [compound 701009], the MIC is not above 0.5 µg/mL in assay [1]; not above 0.5 µg/mL in assay [2]; not above 0.5 µg/mL in assay [3]; 2 µg/mL (≈ 4.41 µM) in assay [4]; 2 µg/mL (≈ 4.41 µM) in [5]; 4 µg/mL in assay [6]. Also, the MIC is not above 0.5 µg/mL in [7]; not above 0.5 µg/mL in assay [8]; 32 µg/mL (≈ 70.5 µM) in assay [9]; not above 0.5 µg/mL in assay [10]; 4 µg/mL (≈ 8.81 µM) in assay [11]; 4 µg/mL (≈ 8.81 µM) in [12].

`CCc1[nH]c2nc(Sc3cnc4nccnc4c3)nc(N3CCC4(CC4N)C3)c2c1Cl` (stereo not drawn) [700,986]: the “MIC, SA” value in assay [1] is given as 1. Moreover, the “MIC Spn52” value in assay [3] came to 2. Besides, the MIC EC8 in assay [5] was determined as 64 µg/mL (≈ 141 µM).

In the case of `CCc1[nH]c2nc(Sc3ccc4cccnc4c3)nc(N3CC[C@@H](N)C3)c2c1Cl` [700,991], the “MIC, SA” value in [1] worked out at 1. In addition, in [3], the “MIC Spn52” value is reported as 2. Further, in [5], the MIC EC8 came to 32 µg/mL (≈ 75.3 µM).

As for `CCc1[nH]c2nc(Oc3cncnc3)nc(Oc3ccc4c(N5CCOCC5)ncnc4c3)c2c1Br` [701,104], the “MIC, SA” value in assay [1] is “<=0.5”. The “MIC Spn52” value in [3] is on record as “<=0.5”. The MIC EC8 in assay [5] is more than 32 µg/mL.

Source of the values: patent publication US10047105B2, “Gyrase inhibitors” (Merck Sharp & Dohme Corp., priority 2009, dated 2018).
